From patent US12485114B2, “Materials and methods useful to induce cancer cell death via methuosis or autophagy or a combination thereof” (The University of Toledo, priority 2017, dated 2025)

What was measured:
HCT-116 cells = test: 3D transmission electron tomography of lysosomes; type: cell-based
Source text: The 3D reconstruction was loaded into the Avizo 3D Visualization software to reveal lysosomal structure through volume rendering and segmentation. FIGS. 50B-50C show increased autophagic vesicles (yellow) and increased lysosomal cargo (green).
(FIG. 50A & FIG. 50B & FIG. 50C).

cancer cells = test: Vacuoles formation and cell death with necroptosis inhibitor necrostatin-1; type: cell-based; settings: necrostatin-1 up to 30 μM
Experimental: BAPT-27 induces a type of death that is also independent of necrosis or necroptosis. The vacuoles formation and cell death was not inhibited by the addition of necrostatin-1, a necroptosis inhibitor, even at high concentrations (up to 30 μM).
BAPT-27 induces a type of death that is independent of necrosis or necroptosis. The vacuoles formation and cell death was not inhibited by the addition of necrostatin-1, a necroptosis inhibitor, even at high concentrations (up to 30 μM). (FIG. 44).

FLT3(ITD, D835V) = test: Kinome screening (DiscoverX) against 468 kinases; type: binding
Experimental: (§1) FIG. 49A: Image showing the effect of Image was generated using TREEspot™ Software Tool and reprinted with permission from KINOMEscan®, a division of DiscoveRx Corporation, @ DISCOVERX CORPORATION 2010. Selectivity Score or S-score is a quantitative measure of compound selectivity. It was calculated by dividing the number of kinases that BAPT-27 bind to by the total number of distinct kinases tested, excluding mutant variants.

ABL1 T315I = biological target: T1, ABL1 T315I (Homo sapiens, UniProt P00519, T315I); test: Kinome screening (DiscoverX) against 468 kinases; type: binding
T1 construct: purchased DiscoverX (KINOMEscan)
Experimental: as §1

[1] = biological target: T2, phosphoinositide 5-kinase (PIKfyve) (Homo sapiens, UniProt Q9Y2I7); test: Kinome screening (DiscoverX) against 468 kinases; type: binding
T2 construct: purchased DiscoverX (KINOMEscan)
T2 sequence (Q9Y2I7 whole entry): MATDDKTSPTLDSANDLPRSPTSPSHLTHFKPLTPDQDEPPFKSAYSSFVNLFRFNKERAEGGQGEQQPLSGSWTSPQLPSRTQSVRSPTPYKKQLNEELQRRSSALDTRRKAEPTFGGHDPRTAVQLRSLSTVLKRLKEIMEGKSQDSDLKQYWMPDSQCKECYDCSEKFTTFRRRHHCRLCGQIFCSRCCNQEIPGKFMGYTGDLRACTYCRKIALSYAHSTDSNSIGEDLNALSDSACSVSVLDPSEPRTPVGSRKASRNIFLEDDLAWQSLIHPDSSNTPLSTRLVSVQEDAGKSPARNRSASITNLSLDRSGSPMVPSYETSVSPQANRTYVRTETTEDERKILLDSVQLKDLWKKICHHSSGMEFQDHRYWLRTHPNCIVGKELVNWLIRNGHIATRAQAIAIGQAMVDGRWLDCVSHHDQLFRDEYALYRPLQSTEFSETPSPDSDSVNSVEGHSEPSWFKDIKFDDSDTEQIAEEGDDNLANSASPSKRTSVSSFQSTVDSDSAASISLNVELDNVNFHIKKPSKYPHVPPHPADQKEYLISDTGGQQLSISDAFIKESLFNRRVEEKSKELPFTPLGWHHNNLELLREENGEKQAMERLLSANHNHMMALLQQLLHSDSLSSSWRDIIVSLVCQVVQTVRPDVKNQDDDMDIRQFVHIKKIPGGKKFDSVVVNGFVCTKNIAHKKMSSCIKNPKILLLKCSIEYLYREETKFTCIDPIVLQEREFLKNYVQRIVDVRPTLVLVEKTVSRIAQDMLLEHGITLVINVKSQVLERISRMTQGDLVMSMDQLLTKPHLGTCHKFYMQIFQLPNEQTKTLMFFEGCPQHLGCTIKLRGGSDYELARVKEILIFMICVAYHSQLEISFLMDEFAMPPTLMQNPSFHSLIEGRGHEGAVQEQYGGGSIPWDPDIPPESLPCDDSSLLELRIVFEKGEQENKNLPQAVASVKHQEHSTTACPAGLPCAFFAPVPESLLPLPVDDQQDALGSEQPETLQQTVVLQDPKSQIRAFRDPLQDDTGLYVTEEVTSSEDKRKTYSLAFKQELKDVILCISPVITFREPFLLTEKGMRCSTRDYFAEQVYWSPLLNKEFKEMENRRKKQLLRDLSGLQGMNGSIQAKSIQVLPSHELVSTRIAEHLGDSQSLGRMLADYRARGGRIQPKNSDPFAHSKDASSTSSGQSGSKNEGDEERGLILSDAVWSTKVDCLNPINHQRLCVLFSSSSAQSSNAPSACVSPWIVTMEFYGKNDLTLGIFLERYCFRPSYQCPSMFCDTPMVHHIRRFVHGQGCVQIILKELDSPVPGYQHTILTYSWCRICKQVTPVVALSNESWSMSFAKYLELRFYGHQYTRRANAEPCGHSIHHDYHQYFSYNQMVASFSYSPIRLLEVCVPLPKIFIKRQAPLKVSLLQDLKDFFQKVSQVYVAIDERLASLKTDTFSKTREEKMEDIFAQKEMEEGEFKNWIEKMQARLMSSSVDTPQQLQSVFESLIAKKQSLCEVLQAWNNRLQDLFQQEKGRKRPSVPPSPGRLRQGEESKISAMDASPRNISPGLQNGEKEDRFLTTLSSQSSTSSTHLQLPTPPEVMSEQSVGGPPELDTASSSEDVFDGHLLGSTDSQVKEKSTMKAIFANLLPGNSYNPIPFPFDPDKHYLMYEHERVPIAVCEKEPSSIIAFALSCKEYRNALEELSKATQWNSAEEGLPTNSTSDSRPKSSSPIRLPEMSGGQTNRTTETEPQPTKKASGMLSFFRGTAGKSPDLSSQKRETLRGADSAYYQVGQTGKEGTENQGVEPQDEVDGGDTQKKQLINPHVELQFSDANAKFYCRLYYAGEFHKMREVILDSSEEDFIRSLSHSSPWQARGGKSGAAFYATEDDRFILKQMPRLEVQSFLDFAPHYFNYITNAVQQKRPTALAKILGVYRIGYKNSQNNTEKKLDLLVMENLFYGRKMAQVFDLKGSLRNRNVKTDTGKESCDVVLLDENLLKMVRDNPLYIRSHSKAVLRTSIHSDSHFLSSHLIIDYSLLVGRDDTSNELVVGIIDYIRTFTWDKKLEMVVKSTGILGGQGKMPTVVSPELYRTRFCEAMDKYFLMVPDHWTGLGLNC
Experimental: as §1

JNK1 = biological target: T3, JNK1 (Homo sapiens, UniProt P45983); test: Kinome screening (DiscoverX) against 468 kinases; type: binding
T3 construct: purchased DiscoverX (KINOMEscan)
T3 sequence (P45983 whole entry): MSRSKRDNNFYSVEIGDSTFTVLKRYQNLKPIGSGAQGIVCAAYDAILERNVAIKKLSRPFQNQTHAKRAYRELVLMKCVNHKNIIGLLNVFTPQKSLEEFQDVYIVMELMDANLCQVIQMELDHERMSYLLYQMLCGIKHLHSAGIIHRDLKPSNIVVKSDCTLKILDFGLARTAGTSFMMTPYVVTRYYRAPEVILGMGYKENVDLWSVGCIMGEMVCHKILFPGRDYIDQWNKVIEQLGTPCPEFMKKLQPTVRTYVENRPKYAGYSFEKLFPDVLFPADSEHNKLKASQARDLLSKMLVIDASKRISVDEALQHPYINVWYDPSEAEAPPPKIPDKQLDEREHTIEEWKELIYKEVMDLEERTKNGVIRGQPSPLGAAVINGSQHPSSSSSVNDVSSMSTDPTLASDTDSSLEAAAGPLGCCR
Experimental: as §1

JNK2 = biological target: T4, JNK2 (Homo sapiens, UniProt P45984); test: Kinome screening (DiscoverX) against 468 kinases; type: binding
T4 construct: purchased DiscoverX (KINOMEscan)
T4 sequence (P45984 whole entry): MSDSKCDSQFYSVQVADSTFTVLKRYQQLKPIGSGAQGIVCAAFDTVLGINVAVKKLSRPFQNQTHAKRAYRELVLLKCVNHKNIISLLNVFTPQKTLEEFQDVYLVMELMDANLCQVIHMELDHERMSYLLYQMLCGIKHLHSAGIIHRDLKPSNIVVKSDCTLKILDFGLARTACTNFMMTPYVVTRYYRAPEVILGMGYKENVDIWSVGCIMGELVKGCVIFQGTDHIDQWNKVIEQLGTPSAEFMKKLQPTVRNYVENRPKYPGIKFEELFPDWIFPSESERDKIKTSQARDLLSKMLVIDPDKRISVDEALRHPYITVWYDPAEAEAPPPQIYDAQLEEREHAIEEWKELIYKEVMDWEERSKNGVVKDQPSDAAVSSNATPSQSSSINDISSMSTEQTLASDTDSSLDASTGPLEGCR
Experimental: as §1

JNK3 = biological target: T5, JNK3 (Homo sapiens, UniProt P53779); test: Kinome screening (DiscoverX) against 468 kinases; type: binding
T5 construct: purchased DiscoverX (KINOMEscan)
T5 sequence (P53779 whole entry): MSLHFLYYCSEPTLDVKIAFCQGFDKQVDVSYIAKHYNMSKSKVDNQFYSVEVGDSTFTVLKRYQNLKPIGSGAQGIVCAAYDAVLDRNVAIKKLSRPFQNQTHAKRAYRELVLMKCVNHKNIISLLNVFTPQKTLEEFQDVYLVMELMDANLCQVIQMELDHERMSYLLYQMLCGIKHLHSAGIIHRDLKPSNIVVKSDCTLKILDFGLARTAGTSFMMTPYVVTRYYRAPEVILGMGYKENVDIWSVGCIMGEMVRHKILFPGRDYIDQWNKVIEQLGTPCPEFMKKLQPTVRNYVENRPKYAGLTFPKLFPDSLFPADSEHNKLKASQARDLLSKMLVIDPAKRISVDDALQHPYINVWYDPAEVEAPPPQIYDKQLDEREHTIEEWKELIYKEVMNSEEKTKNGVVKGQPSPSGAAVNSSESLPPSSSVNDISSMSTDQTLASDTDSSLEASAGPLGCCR
Experimental: as §1

DYRK1A = biological target: T6, DYRK1A (Homo sapiens, UniProt Q13627); test: Kinome screening (DiscoverX) against 468 kinases; type: binding
T6 construct: purchased DiscoverX (KINOMEscan)
Experimental: as §1

FLT3(D835V) = biological target: T7, FLT3(D835V) (Homo sapiens, UniProt P36888, D835V); test: Kinome screening (DiscoverX) against 468 kinases; type: binding
T7 construct: purchased DiscoverX (KINOMEscan)
Experimental: as §1

[2] = system: normal epithelial colon cells (CRL-1459); test: Morphological assessment of vacuolization in normal cells; type: cell-based; settings: CRL-1459 normal cells
Source text: The methuophagy inducing activities of BAPT-27 were also prominent in different colon cancer cell lines with different genetic profiles. […] (FIG. 42). However, the vacuoles formation was not prominent in normal epithelial colon cells (CRL-1459). (FIG. 42).

TFEB-mTOR pathway = test: mTOR, Beclin-1 and LC3B-II autophagy related markers; type: cell-based
Source text: Autophagosome and lysosomal homeostasis is governed by transcription factor EB (TFEB)—mTOR signaling pathways (TFEB-mTOR pathway). […] (FIG. 51A & FIG. 51B & FIG. 51C).

lysosomes = test: Lysotracker red dye accumulation; type: cell-based
HCT116 cells = test: Electron microscopy of treated cells; type: cell-based
Experimental: The vacuoles are indicated by V in FIG. 31. The single membranes of the vacuoles are destroyed (indicated by arrows in FIG. 31), allowing small vacuoles to merge, forming bigger vacuoles.
The vacuoles are fluid filled with traces of membranes due to vacuoles fusion events. The nuclei are healthy with no signs of chromatin condensation and are unaffected at even a high concentration (30 μM). However, as the vacuoles coalesce and grow in size, the nuclei are pushed on the edges of the cells. The nuclei are indicated by white N, and the vacuoles are indicated by black arrows, in FIG. 32.
(FIG. 38). The ER is indicated by black arrows.

[3] = system: resistant lung cancer cell lines H460-MX20; test: Reversal of multidrug resistance, combined with mitoxantrone; type: cell-based
Source text: (§2) The cells became sensitive to the cytotoxicity of mitoxantrone when combined with BAPT-27. Further, BAPT-27 induced death in apoptosis resistant cell lines including colon cancer cell lines that are missing important pro-apoptotic genes Bax and Bak using well established models (HCT116, HCT116 Bax −/−, HCT116 Bak −/−, HCT116 Bax/Bak−/−). Accordingly, BAPT-27 represents a family of compounds that induce cell death in sensitive and resistant cancers, as well as those cancers that are refractory to death by conventional apoptosis inducing anticancer agents.
(§3) (FIG. 46). NSCLC cells resistant to apoptosis are also sensitive to the activities of BAPT-27.

[4] = system: resistant colon cancer cell lines S1M180; test: as above; type: cell-based
Source text: as §2, §3

[5] = cells became sensitive to mitoxantrone in combination

Sc1nnc(-c2ccncc2)n1/N=C/c1c[nH]c2ccccc12 [BAPT-27, 4-(((1H-Indol-3-Yl)Methylene)Amino)-5-(Pyridin-4-Yl)-4H-1,2,4-Triazole-3-Thiol]
autophagic vesicles and lysosomal cargo (HCT-116 cells): increased autophagic vesicles and increased lysosomal cargo
lysosomal size (HCT-116 cells): significant increase in lysosomal size
inhibition of vacuoles formation and cell death by necrostatin-1 (cancer cells): not inhibited
inhibitory potency (FLT3(ITD, D835V)): shows inhibitory potency
inhibitory potency (ABL1 T315I): shows inhibitory potency
inhibitory potency [1]: shows inhibitory potency
inhibitory potency (JNK1): shows inhibitory potency
inhibitory potency (JNK2): shows inhibitory potency
inhibitory potency (JNK3): shows inhibitory potency
inhibitory potency (DYRK1A): shows inhibitory potency
inhibitory potency (FLT3(D835V)): shows inhibitory potency
vacuoles formation [2]: not prominent
Beclin-1 level (TFEB-mTOR pathway): increased
LC3B-II level (TFEB-mTOR pathway): increased
mTOR level (TFEB-mTOR pathway): significantly downregulated
lysotracker red dye inside the formed vacuoles (lysosomes): significant accumulation
formation of single membrane vacuoles (electron microscopy) (HCT116 cells; 10 μM): extensive formation of single membrane vacuoles
state of nuclei (electron microscopy) (HCT116 cells; high concentration (30 μM)): unaffected
state of endoplasmic reticulum (electron microscopy) (HCT116 cells; highest concentration 100 μM): normal and not stressed
delivery and sensitivity of doxorubicin and mitoxantrone [3]: increase the delivery and enhanced sensitivity
reversal of multidrug resistance [3, 5]: reversed multidrug resistance
delivery and sensitivity of doxorubicin and mitoxantrone [4]: increase the delivery and enhanced sensitivity
reversal of multidrug resistance [4, 5]: reversed multidrug resistance
